According to PubChem BioAssay (NCI):
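How tested: cells in 96-well plates exposed to compound for 48 hours at five concentrations. The concentration for 50% growth inhibition is given as GI50. TGI: total growth inhibition.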

Assays:
Assay in all cases: NCI-60 cell line screen, 48 h
[1] = test system: CAKI-1 renal
[2] = test system: SF-295 CNS
[3] = test system: MOLT-4 leukemia
[4] = test system: MALME-3M melanoma
[5] = test system: CCRF-CEM leukemia
[6] = test system: PC-3 prostate
[7] = test system: SF-539 CNS
[8] = test system: HCC-2998 colon
[9] = test system: BT-549 breast
[10] = test system: SK-MEL-5 melanoma
[11] = test system: SK-MEL-2 melanoma
[12] = test system: TK-10 renal
[13] = test system: HS 578T breast
[14] = test system: MCF7 breast
[15] = test system: UO-31 renal
[16] = test system: ACHN renal
[17] = test system: RXF 393 renal
[18] = test system: UACC-62 melanoma
[19] = test system: A498 renal
[20] = test system: KM12 colon
[21] = test system: SK-MEL-28 melanoma
[22] = test system: NCI-H226 lung
[23] = test system: SF-268 CNS
[24] = test system: OVCAR-5 ovarian
[25] = test system: HCT-15 colon
[26] = test system: HL-60(TB) leukemia
[27] = test system: SNB-75 CNS
[28] = test system: IGROV1 ovarian
[29] = test system: HOP-62 NSCLC
[30] = test system: HCT-116 colon
[31] = test system: SR leukemia
[32] = test system: SN12C renal
[33] = test system: OVCAR-8 ovarian
[34] = test system: NCI-H23 lung
[35] = test system: SK-OV-3 ovarian
[36] = test system: 786-0 renal
[37] = test system: LOX IMVI melanoma
[38] = test system: EKVX NSCLC
[39] = test system: A549 NSCLC
[40] = test system: K-562 leukemia
[41] = test system: SW-620 colon
[42] = test system: T-47D breast
[43] = test system: COLO 205 colon
[44] = test system: SNB-19 CNS
[45] = test system: RPMI-8226 leukemia
[46] = test system: NCI-H522 lung
[47] = test system: UACC-257 melanoma
[48] = test system: M14 melanoma
[49] = test system: OVCAR-4 ovarian
[50] = test system: NCI/ADR-RES ovarian
[51] = test system: DU-145 prostate
[52] = test system: NCI-H460 lung
[53] = test system: U251 CNS
[54] = test system: OVCAR-3 ovarian
[55] = test system: HT29 colon
[56] = test system: MDA-MB-435
[57] = test system: MDA-MB-231 breast
[58] = test system: HOP-92 NSCLC

With `COc1cc(N2CCN(C(C)C)CC2)ccc1Nc1nc(Nc2ccc(F)cc2C(=O)NCC(O)CO)c2cc[nH]c2n1` (stereo unspecified) the GI50 [1] was > 25 µM, the TGI [1] was > 25 µM and the GI50 [2] was 11.4 µM. The TGI [2] was > 25 µM, the GI50 [3] was 8.68 µM and the TGI [3] was > 25 µM. The GI50 [4] was 4.65 µM, the TGI [4] was > 25 µM and the GI50 [5] was 2.65 µM. The TGI [5] was > 25 µM, the GI50 [6] was > 25 µM and the TGI [6] was > 25 µM. For the same compound, the GI50 [7] was 5.13 µM, the TGI [7] was > 25 µM and the GI50 [8] was 7.21 µM. The TGI [8] was > 25 µM, the GI50 [9] was 8.23 µM and the TGI [9] was > 25 µM. The GI50 [10] was 11.4 µM, the TGI [10] was > 25 µM and the GI50 [11] was 4.18 µM. For the same compound, the TGI [11] was > 23.6 µM, the GI50 [12] was 11.9 µM and the TGI [12] was > 25 µM. The GI50 [13] was 6.9 µM, the TGI [13] was > 25 µM and the GI50 [14] was 0.276 µM. For the same compound, the TGI [14] was > 25 µM, the GI50 [15] was > 25 µM and the TGI [15] was > 25 µM. For the same compound, the GI50 [16] was > 25 µM, the TGI [16] was > 25 µM and the GI50 [17] was 11.4 µM. For the same compound, the TGI [17] was > 25 µM, the GI50 [18] was 9.87 µM and the TGI [18] was > 25 µM. For the same compound, the GI50 [19] was 2.5 µM, the TGI [19] was > 25 µM and the GI50 [20] was 10.6 µM. For the same compound, the TGI [20] was > 25 µM, the GI50 [21] was > 25 µM and the TGI [21] was > 25 µM. It also gave a GI50 [22] of 5.04 µM, a TGI [22] of 19.9 µM and a GI50 [23] of 6.89 µM. For the same compound, the TGI [23] was > 25 µM, the GI50 [24] was 4.28 µM and the TGI [24] was > 25 µM. For the same compound, the GI50 [25] was > 25 µM, the TGI [25] was > 25 µM and the GI50 [26] was 1.08 µM. The TGI [26] was 13.6 µM, the GI50 [27] was 13.3 µM and the TGI [27] was > 25 µM. For the same compound, the GI50 [28] was 11.1 µM, the TGI [28] was > 25 µM and the GI50 [29] was 4.09 µM. For the same compound, the TGI [29] was > 25 µM, the GI50 [30] was 1.69 µM and the TGI [30] was > 25 µM. The GI50 [31] was 1.13 µM, the TGI [31] was > 14 µM and the GI50 [32] was 7.62 µM. The TGI [32] was > 25 µM, the GI50 [33] was 16.3 µM and the TGI [33] was > 25 µM. The GI50 [34] was 4.22 µM, the TGI [34] was > 23.3 µM and the GI50 [35] was 6.85 µM. For the same compound, the TGI [35] was > 25 µM, the GI50 [36] was > 23.3 µM and the TGI [36] was > 25 µM. The GI50 [37] was 1.64 µM, the TGI [37] was > 25 µM and the GI50 [38] was > 13.8 µM. For the same compound, the TGI [38] was > 25 µM, the GI50 [39] was 5.76 µM and the TGI [39] was > 25 µM. For the same compound, the GI50 [40] was > 19.9 µM, the TGI [40] was > 25 µM and the GI50 [41] was 2.05 µM. For the same compound, the TGI [41] was > 25 µM, the GI50 [42] was 7.52 µM and the TGI [42] was > 25 µM. For the same compound, the GI50 [43] was 0.526 µM, the TGI [43] was > 9.9 µM and the GI50 [44] was 7.41 µM. The TGI [44] was > 25 µM, the GI50 [45] was 15 µM and the TGI [45] was > 25 µM. For the same compound, the GI50 [46] was 4.79 µM, the TGI [46] was > 25 µM and the GI50 [47] was 2.87 µM. For the same compound, the TGI [47] was > 25 µM, the GI50 [48] was 12 µM and the TGI [48] was > 25 µM. For the same compound, the GI50 [49] was > 25 µM, the TGI [49] was > 25 µM and the GI50 [50] was > 25 µM. The TGI [50] was > 25 µM, the GI50 [51] was 3.73 µM and the TGI [51] was > 25 µM. It also gave a GI50 [52] of 6.05 µM, a TGI [52] of 19.4 µM and a GI50 [53] of 5.22 µM. The TGI [53] was > 25 µM, the GI50 [54] was > 25 µM and the TGI [54] was > 25 µM. For the same compound, the GI50 [55] was 1.25 µM, the TGI [55] was > 25 µM and the GI50 [56] was 4.99 µM. For the same compound, the TGI [56] was > 25 µM, the GI50 [57] was 13.6 µM and the TGI [57] was > 25 µM. For the same compound, the GI50 [58] was 0.182 µM and the TGI [58] was 2.09 µM.
